Results on one molecule are retold here after patent US12545718B2 (priority 2019, dated 2026).

This assay relates to B/Malaysia/2506/04 virus. Also on record: species or system BALB/c mice. Conditions: mouse, in vivo.

As for `CCOC(=O)C1=C[C@@H](OC(CC)CC)[C@H](NC(C)=O)[C@@H](N)C1` [oseltamivir, Oseltamivir phosphate], the weight loss entry is reported as “does not protect from weight loss”.
